Experimental data taken from patent US6203822A, “Gallium-containing compounds for the treatment of infections caused by intracellular pathogens and pathogens causing chronic pulmonary infection” (priority 1996, dated 2001).

System: MDR-TB patient isolate (resistant to isoniazid and rifampin)
Format: cell-based, M. tuberculosis
Settings: gallium about 0 to about 500 μM

## O=[N+]([O-])[O-].O=[N+]([O-])[O-].O=[N+]([O-])[O-].[Ga+3] [gallium nitrate]
  activity against MDR M. tuberculosis strain: retained full activity
